Earlier results as cited in patent publication US12202907B2, “Nucleic acids encoding and methods of producing proteins comprising antibody chains” (Innate Pharma, priority 2018, dated 2025).

Target: T1, CD39 (Homo sapiens, UniProt P49961)
T1 sequence (P49961 1-510): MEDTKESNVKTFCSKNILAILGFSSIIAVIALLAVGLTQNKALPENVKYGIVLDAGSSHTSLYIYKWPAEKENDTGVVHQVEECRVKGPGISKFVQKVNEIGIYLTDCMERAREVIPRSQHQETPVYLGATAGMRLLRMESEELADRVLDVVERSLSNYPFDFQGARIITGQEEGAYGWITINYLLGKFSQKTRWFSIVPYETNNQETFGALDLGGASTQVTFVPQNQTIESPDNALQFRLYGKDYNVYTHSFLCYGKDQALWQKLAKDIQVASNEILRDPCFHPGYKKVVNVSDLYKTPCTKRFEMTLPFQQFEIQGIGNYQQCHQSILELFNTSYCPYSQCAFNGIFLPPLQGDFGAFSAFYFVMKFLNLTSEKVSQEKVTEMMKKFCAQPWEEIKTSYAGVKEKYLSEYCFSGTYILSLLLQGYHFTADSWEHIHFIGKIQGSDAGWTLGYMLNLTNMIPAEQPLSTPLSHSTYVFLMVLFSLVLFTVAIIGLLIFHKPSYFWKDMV
Settings: Levesque et al. (2007); cited from earlier work

CCN(CC)c1ncnc2c1ncn2[C@@H]1O[C@H](COP(=O)(O)OP(=O)(O)C(Br)(Br)P(=O)(O)O)[C@@H](O)[C@H]1O [ARL67156]
inhibition of CD39 (mode, strength): weak competitive inhibitor
